Laboratory results as given in PubChem BioAssay (NCI).
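Following 48 hours of exposure in 96-well plates, responses at five concentrations were used to interpolate endpoints linearly. TGI: total growth inhibition.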

Key:
Assay in all cases: NCI-60 cell line screen, 48 h
RXF 393 renal = test system: RXF 393 renal
IGROV1 ovarian = test system: IGROV1 ovarian
HT29 colon = test system: HT29 colon
A549 NSCLC = test system: A549 NSCLC
HCT-15 colon = test system: HCT-15 colon
BT-549 breast = test system: BT-549 breast
NCI-H23 lung = test system: NCI-H23 lung
HCT-116 colon = test system: HCT-116 colon
OVCAR-3 ovarian = test system: OVCAR-3 ovarian
HS 578T breast = test system: HS 578T breast
MALME-3M melanoma = test system: MALME-3M melanoma
NCI-H226 lung = test system: NCI-H226 lung
MOLT-4 leukemia = test system: MOLT-4 leukemia
PC-3 prostate = test system: PC-3 prostate
A498 renal = test system: A498 renal
MDA-MB-231 breast = test system: MDA-MB-231 breast
SN12C renal = test system: SN12C renal
DU-145 prostate = test system: DU-145 prostate
HOP-62 NSCLC = test system: HOP-62 NSCLC
SF-268 CNS = test system: SF-268 CNS
COLO 205 colon = test system: COLO 205 colon
K-562 leukemia = test system: K-562 leukemia
OVCAR-4 ovarian = test system: OVCAR-4 ovarian
UACC-257 melanoma = test system: UACC-257 melanoma
U251 CNS = test system: U251 CNS
MDA-MB-435 = test system: MDA-MB-435
MDA-N = test system: MDA-N
SW-620 colon = test system: SW-620 colon
HCC-2998 colon = test system: HCC-2998 colon
ACHN renal = test system: ACHN renal
SF-295 CNS = test system: SF-295 CNS
LOX IMVI melanoma = test system: LOX IMVI melanoma
SR leukemia = test system: SR leukemia
SNB-75 CNS = test system: SNB-75 CNS
SK-OV-3 ovarian = test system: SK-OV-3 ovarian
EKVX NSCLC = test system: EKVX NSCLC
OVCAR-5 ovarian = test system: OVCAR-5 ovarian
T-47D breast = test system: T-47D breast
NCI-H460 lung = test system: NCI-H460 lung
NCI-H522 lung = test system: NCI-H522 lung
SK-MEL-5 melanoma = test system: SK-MEL-5 melanoma
CAKI-1 renal = test system: CAKI-1 renal
M14 melanoma = test system: M14 melanoma
SK-MEL-28 melanoma = test system: SK-MEL-28 melanoma
SF-539 CNS = test system: SF-539 CNS
MCF7 breast = test system: MCF7 breast
SNB-19 CNS = test system: SNB-19 CNS
786-0 renal = test system: 786-0 renal
HOP-92 NSCLC = test system: HOP-92 NSCLC
UO-31 renal = test system: UO-31 renal
RPMI-8226 leukemia = test system: RPMI-8226 leukemia
OVCAR-8 ovarian = test system: OVCAR-8 ovarian
HL-60(TB) leukemia = test system: HL-60(TB) leukemia
KM12 colon = test system: KM12 colon
NCI/ADR-RES ovarian = test system: NCI/ADR-RES ovarian
UACC-62 melanoma = test system: UACC-62 melanoma
TK-10 renal = test system: TK-10 renal
SK-MEL-2 melanoma = test system: SK-MEL-2 melanoma
CCRF-CEM leukemia = test system: CCRF-CEM leukemia

In the case of `NC(CSS(=O)(=O)c1ccccc1)C(=O)O` (stereo not drawn), the TGI (RXF 393 renal) is reported as over 10 µM, the TGI (IGROV1 ovarian) is reported as over 10 µM and the TGI (HT29 colon) is reported as over 10 µM. The TGI (A549 NSCLC) was over 10 µM, the TGI (HCT-15 colon) was over 10 µM and the TGI (BT-549 breast) was over 10 µM. It also gave a TGI (NCI-H23 lung) of over 10 µM, a TGI (HCT-116 colon) of over 10 µM and a TGI (OVCAR-3 ovarian) of over 10 µM. For the same compound, the TGI (HS 578T breast) was over 10 µM, the TGI (MALME-3M melanoma) was over 10 µM and the TGI (NCI-H226 lung) was over 10 µM. The TGI (MOLT-4 leukemia) was over 10 µM, the TGI (PC-3 prostate) was over 10 µM and the TGI (A498 renal) was over 10 µM. It also gave a TGI (MDA-MB-231 breast) of over 10 µM, a TGI (SN12C renal) of over 10 µM and a TGI (DU-145 prostate) of over 10 µM. It also gave a TGI (HOP-62 NSCLC) of over 10 µM, a TGI (SF-268 CNS) of over 10 µM and a TGI (COLO 205 colon) of over 10 µM. For the same compound, the TGI (K-562 leukemia) was over 10 µM, the TGI (OVCAR-4 ovarian) was over 10 µM and the TGI (UACC-257 melanoma) was over 10 µM. For the same compound, the TGI (U251 CNS) was over 10 µM, the TGI (MDA-MB-435) was over 10 µM and the TGI (MDA-N) was over 10 µM. The TGI (SW-620 colon) was over 10 µM, the TGI (HCC-2998 colon) was over 10 µM and the TGI (ACHN renal) was over 10 µM. For the same compound, the TGI (SF-295 CNS) was over 10 µM, the TGI (LOX IMVI melanoma) was over 10 µM and the TGI (SR leukemia) was over 10 µM. It also gave a TGI (SNB-75 CNS) of over 10 µM, a TGI (SK-OV-3 ovarian) of over 10 µM and a TGI (EKVX NSCLC) of over 10 µM. For the same compound, the TGI (OVCAR-5 ovarian) was over 10 µM, the TGI (T-47D breast) was over 10 µM and the TGI (NCI-H460 lung) was over 10 µM. The TGI (NCI-H522 lung) was over 10 µM, the TGI (SK-MEL-5 melanoma) was over 10 µM and the TGI (CAKI-1 renal) was over 10 µM. It also gave a TGI (M14 melanoma) of over 10 µM, a TGI (SK-MEL-28 melanoma) of over 10 µM and a TGI (SF-539 CNS) of over 10 µM. The TGI (MCF7 breast) was over 10 µM, the TGI (SNB-19 CNS) was over 10 µM and the TGI (786-0 renal) was over 10 µM. It also gave a TGI (HOP-92 NSCLC) of over 10 µM, a TGI (UO-31 renal) of over 10 µM and a TGI (RPMI-8226 leukemia) of over 10 µM. The TGI (OVCAR-8 ovarian) was over 10 µM, the TGI (HL-60(TB) leukemia) was over 10 µM and the TGI (KM12 colon) was over 10 µM. It also gave a TGI (NCI/ADR-RES ovarian) of over 10 µM, a TGI (UACC-62 melanoma) of over 10 µM and a TGI (TK-10 renal) of over 10 µM. For the same compound, the TGI (SK-MEL-2 melanoma) was over 10 µM and the TGI (CCRF-CEM leukemia) was over 10 µM.

Work on `Cn1c(=O)cc(NNc2ccccc2)[nH]c1=O` yielded a TGI (RXF 393 renal) of 33.6 µM, a TGI (IGROV1 ovarian) of 85.7 µM and a TGI (HT29 colon) of 29.1 µM. The TGI (A549 NSCLC) was over 100 µM, the TGI (HCT-15 colon) was 30.1 µM and the TGI (BT-549 breast) was over 100 µM. It also gave a TGI (NCI-H23 lung) of over 100 µM, a TGI (HCT-116 colon) of 31.6 µM and a TGI (OVCAR-3 ovarian) of 30.4 µM. For the same compound, the TGI (HS 578T breast) was over 100 µM, the TGI (MALME-3M melanoma) was 75.9 µM and the TGI (NCI-H226 lung) was over 100 µM. The TGI (MOLT-4 leukemia) was over 100 µM, the TGI (PC-3 prostate) was over 100 µM and the TGI (A498 renal) was over 100 µM. The TGI (MDA-MB-231 breast) was 33.5 µM, the TGI (SN12C renal) was over 100 µM and the TGI (DU-145 prostate) was over 100 µM. The TGI (HOP-62 NSCLC) was over 100 µM, the TGI (SF-268 CNS) was over 100 µM and the TGI (COLO 205 colon) was over 100 µM. It also gave a TGI (K-562 leukemia) of over 100 µM, a TGI (OVCAR-4 ovarian) of over 100 µM and a TGI (UACC-257 melanoma) of over 100 µM. It also gave a TGI (U251 CNS) of 31.7 µM, a TGI (MDA-MB-435) of 75 µM and a TGI (MDA-N) of over 100 µM. For the same compound, the TGI (SW-620 colon) was 31.3 µM, the TGI (HCC-2998 colon) was over 100 µM and the TGI (ACHN renal) was over 100 µM. For the same compound, the TGI (SF-295 CNS) was over 100 µM, the TGI (LOX IMVI melanoma) was 28.3 µM and the TGI (SR leukemia) was 57.8 µM. It also gave a TGI (SNB-75 CNS) of over 100 µM, a TGI (SK-OV-3 ovarian) of over 100 µM and a TGI (EKVX NSCLC) of over 100 µM. For the same compound, the TGI (OVCAR-5 ovarian) was over 100 µM, the TGI (T-47D breast) was 38.9 µM and the TGI (NCI-H460 lung) was over 100 µM. The TGI (NCI-H522 lung) was 28.9 µM, the TGI (SK-MEL-5 melanoma) was over 100 µM and the TGI (CAKI-1 renal) was 29.2 µM. For the same compound, the TGI (M14 melanoma) was 89.9 µM, the TGI (SK-MEL-28 melanoma) was 60.4 µM and the TGI (SF-539 CNS) was over 100 µM. For the same compound, the TGI (MCF7 breast) was 12.8 µM, the TGI (SNB-19 CNS) was over 100 µM and the TGI (786-0 renal) was 30 µM. It also gave a TGI (HOP-92 NSCLC) of 44.7 µM, a TGI (UO-31 renal) of over 100 µM and a TGI (RPMI-8226 leukemia) of 48.1 µM. For the same compound, the TGI (OVCAR-8 ovarian) was 42.1 µM, the TGI (HL-60(TB) leukemia) was 56.8 µM and the TGI (KM12 colon) was 49.9 µM. The TGI (NCI/ADR-RES ovarian) was over 100 µM, the TGI (UACC-62 melanoma) was over 100 µM and the TGI (TK-10 renal) was 65.9 µM. For the same compound, the TGI (SK-MEL-2 melanoma) was over 100 µM and the TGI (CCRF-CEM leukemia) was 90.4 µM.
